Experimental data from US20080021034A1, “Compositions and methods for modulating gated ion channels” (PainCeptor Pharma Corporation, priority 2006, published 2008).

system: proton-gated ion channels (ASIC); experiment: Two-electrode voltage clamp in Xenopus laevis oocytes expressing gated ion channels (Xo); type: cell-based; settings: acidic solution (pH<7) activation
Method: Two-electrode voltage clamp electrophysiological assays in Xenopus laevis oocytes expressing gated ion channels are performed as follows:
Oocytes are surgically removed from adult Xenopus laevis and treated for 2 h at room temperature with 1 mg/ml type I collagenase (Sigma) in Barth's solution under mild agitation. Selected oocytes at stage IV-V are defolliculated manually before nuclear microinjection of 2.5-5 ng of a suitable expression vector, such as pCDNA3, comprising the nucleotide sequence encoding a gated ion channel subunit protein. In such an experiment, the oocytes express homomultimeric proton-gated ion channels on their surface. In an alternate experiment, one, two, three or more vectors comprising the coding sequences for distinct gated ion channel subunits are co-injected in the oocyte nuclei. In the latter case, oocytes express heteromultimeric proton-gated ion channels. For example, ASIC2a and/or ASIC3 subunits in pcDNA3 vector are co-injected at a 1:1 cDNA ratio. After 2-4 days of expression at 19° C. in Barth's solution containing […] gentamicin and 1.8 mM CaCl2, gated ion channels are activated by applying an acidic solution (pH<7) and currents are recorded in a two electrode voltage-clamp configuration, using an OC-725B amplifier (Warner Instruments). Currents are acquired and digitized at 500 Hz on an Apple Imac G3 computer with an A/D NB-MIO-16XL interface (National Instruments) and recorded traces are post-filtered at 100 Hz in Axograph (Axon Instruments) (Neher, E. and Sakmann, B. (1976) Nature 260:799-802). Once impaled with the microelectrodes, oocytes are continuously superfused at 10-12 ml/min with a modified Ringer's solution containing 97 mM NaCl, 2 mM KCl, 1.8 mM CaCl2, and 10 mM HEPES brought to pH 7.4 with NaOH (Control Ringer). Test Ringer solution is prepared by replacing HEPES with MES and adjusting the pH to the desired acidic value. Compounds of the present invention are prepared in both the Control and Test Ringer solutions and applied to oocytes at room temperature through a computer-controlled switching valve system. Osmolarity of all solutions is adjusted to 235 mOsm with choline chloride. Similarly, recordings can also be acquired in an automated multichannel oocytes system as the OpusExpress™ (Molecular Devices, Sunnyvale, USA).

SMILES	Xo: percent binding data [%]	percent effect on acid-evoked current (two-electrode voltage clamp) [%]
CCOC(=O)C1=C(Nc2ccccc2)CCN(Cc2ccccc2)C1 [Compound 55]	<20	
CN1CCC2=C(c3ccccc3)CCC(N)C2C1 (stereo not shown) [Compound 26]		< 20
CN1CCC2=C(c3ccccc3)CC[C@@H](C(=O)Nc3ccccn3)C2C1 (stereo partly shown) [Compound 18]		< 20
CN1CCC(O)(/C(=N\NC(=O)c2ccccc2[N+](=O)[O-])c2ccccc2)CC1 [Compound 50]		< 20
CN1CC[C@@H]2/C(=N/O)c3ccccc3[C@@H]2C1 [Compound 41]		< 20
CN1CCC2=C(c3ccccc3)Cn3c(=O)n(C)c(=O)n3C2C1 (stereo not shown) [Compound 56]		< 20
N#CC1=CCC(c2ccccc2)=C2CCNCC12 (stereo not shown) [Compound 4]		< 20
CN1CC[C@@H]2C(=O)c3ccccc3[C@@H]2C1 [Compound 40]		< 20
CC(=O)N[C@@H]1CCC(c2ccccc2)=C2CCN(C)C[C@@H]21 [Compound 24]		< 20
CCOC(=O)c1cccnc1N/N=C(/c1ccccc1)C1(O)CCN(C)CC1 [Compound 51]		< 20
CN1CCC2=C(c3ccccc3)CCC(NC(=O)c3cccc(/C=N/O)c3)[C@H]2C1 (stereo partly shown) [Compound 27]		< 20
CN1CCC2=C(c3ccccc3)CCC(NC(=O)c3ccccc3O)C2C1 (stereo not shown) [Compound 34]		< 20
CN1CCC2=C(c3ccccc3)CCC(NC(=O)c3ccc(C=O)cc3)C2C1 (stereo not shown) [Compound 33]		< 20
CCOC(=O)N1CC(c2ccccc2)=C2CCN(C(=O)OC(C)(C)C)C[C@@H]2N1C(=O)OCC [Compound 2]		< 20
CN1CCC(O)(/C(=N\Nc2ccccn2)c2ccccc2)CC1 [Compound 48]		< 20
CN1CCC2=C(c3ccccc3)CC[C@@H](C(=O)N(C)C)C2C1 (stereo partly shown) [Compound 16]		< 20
CN1CCC2=C(c3ccccc3)CC[C@@H](C(=O)Nc3cccnc3)C2C1 (stereo partly shown) [Compound 19]		< 20
CCOC(=O)N1NCC(c2ccccc2)=C2CCN(C)CC21 (stereo not shown) [Compound 3]		< 20
CN1CCC2=C(c3ccccc3)CC[C@@H](C(=O)NCc3ccccc3)[C@H]2C1 [Compound 21]		< 20
CN1CCC2=C(c3ccccc3)CCC(C(=O)Nc3ccc(Cl)cc3)C2C1 (stereo not shown) [Compound 13]		< 20
CN1CCC(O)(/C(=N/N)c2ccccc2)CC1 [Compound 39a]		< 20
CN1CCC2=C(c3ccccc3)CC[C@@H](NC(=O)c3ccccc3)[C@H]2C1 [Compound 25]		< 20
CN1CCC2=C(c3ccccc3)CC[C@@H](C(=O)NCCO)C2C1 (stereo partly shown) [Compound 20]		< 20
CN1CCC(O)(/C(=N\NC(=O)c2ccc(O)cc2O)c2ccccc2)CC1 [Compound 45]		< 20
COC(=O)C1=CCC(c2ccccc2)=C2CCN(C(=O)OC(C)(C)C)CC12 (stereo not shown) [Compound 8]		< 20
CN1CCC2=C(c3ccccc3)CC[C@@H]([N+](=O)[O-])[C@H]2C1 [Compound 23]		< 20
CN1CCC(O)(/C(=N\NC(=O)c2ccco2)c2ccccc2)CC1 [Compound 47]		< 20
C#CCNC(=O)[C@@H]1CCC(c2ccccc2)=C2CCN(C)CC21 (stereo partly shown) [Compound 15]		< 20

SMILES	Xo: percent binding data [%]	percent effect on acid-evoked current (two-electrode voltage clamp) [%]
CN1CC[C@@H]2/C(=N/Nc3ccc([N+](=O)[O-])cc3[N+](=O)[O-])c3ccccc3[C@@H]2C1 [Compound 39]	< 20	
CN1CCC2=C(c3ccccc3)CCC(C(=O)O)C2C1 (stereo not shown) [Compound 9]		< 20
CN1CCC2=C(c3ccccc3)CC[C@@H](C(=O)N3CCNCC3)[C@H]2C1 [Compound 22]		< 20
CN1CCC2=C(c3ccccc3)Cn3c(=O)n(-c4ccccc4)c(=O)n3C2C1 (stereo not shown) [Compound 57]		< 20
CN1CCC(O)(C(=NNC(N)=O)c2ccccc2)CC1 [Compound 52]		< 20
CCOC(=O)C1CCC(c2ccccc2)=C2CCN(C)CC21 (stereo not shown) [Compound 10]		< 20
CN1CCC(O)(/C(=N\Nc2ccccc2)c2ccccc2)CC1 [Compound 46]		< 20
CN1CC[C@@H]2/C(=N\NC(N)=O)c3ccccc3[C@@H]2C1 [Compound 43]		< 20
COC(=O)C1=C(C(=O)OC)C2CN(C(=O)OC(C)(C)C)CCC2=C(c2ccccc2)C1 (stereo not shown) [Compound 6]		< 20
CC(C)(C)OC(=O)N1CCC2=C(c3ccccc3)CC[C@@H]([N+](=O)[O-])[C@H]2C1 [Compound 31]		< 20
CN1CCC2=C(c3ccccc3)CCC(NC(=O)c3ccc(/C=N/O)cc3)[C@H]2C1 (stereo partly shown) [Compound 28]		< 20
CN1CCC2=C(c3ccccc3)CC[C@@H](NC(=O)c3ccc(O)cc3)[C@H]2C1 [Compound 29]	< 20	
CN1CCC2=C(c3ccccc3)CCC(NC(=O)c3ccc(/C=N/O)cc3)C2C1 (stereo not shown) [Compound 36]		< 20
CN1CCC2=C(c3ccccc3)CCC(C(=O)OCCO)C2C1 (stereo not shown) [Compound 11]		< 20
CN1CC=C(/C(=N\Nc2ccc([N+](=O)[O-])cc2[N+](=O)[O-])c2ccccc2)CC1 [Compound 44]	< 20	
CN1CCC2=C(c3ccccc3)CCC(NC(=O)c3cccc(C=O)c3)C2C1 (stereo not shown) [Compound 32]		< 20
CN1CCC2=C(c3ccccc3)CC[C@@H](C(=O)Nc3ccccc3Cl)C2C1 (stereo partly shown) [Compound 14]		< 20
CN1CCC2=C(c3ccccc3)CCC(C(=O)Nc3cccc(Cl)c3)C2C1 (stereo not shown) [Compound 12]		< 20
CC(C)(C)OC(=O)N1CCC2=C(c3ccccc3)CC=C(C#N)C2C1 (stereo not shown) [Compound 5]		< 20
CN1CCC2=C(c3ccccc3)CC=C(C#N)[C@H]2C1 [Compound 7]		< 20
CN1CCC2=C(c3ccccc3)CCC(NC(=O)c3ccc(Cl)cc3)C2C1 (stereo not shown) [Compound 35]		< 20
CN1CCC2=C(c3ccccc3)CC[C@@H](C(=O)Nc3ccccc3)C2C1 (stereo partly shown) [Compound 17]		< 20
CN1CCC(O)(/C(=N\NC(=O)c2ccccc2N)c2ccccc2)CC1 [Compound 37]		< 20
CN1CCC2=C(c3ccccc3)CCC(NC(=O)c3cccc(O)c3)C2C1 (stereo not shown) [Compound 30]		< 20
CN1CCC(O)(/C(=N\Nc2ccc([N+](=O)[O-])cc2[N+](=O)[O-])c2ccccc2)CC1 [Compound 42]	< 20	
CCOC(=O)N1CC(c2ccccc2)=C2CCN(C)CC2N1C(=O)OCC (stereo not shown) [Compound 1]		< 20
CN1CCC(O)(/C(=N\NC(=O)c2cccc(O)c2)c2ccccc2)CC1 [Compound 54]		< 20
